Data from patent EP2114888B1, “TRICYCLIC COMPOUNDS AND THEIR USE AS GLUCOCORTICOID RECEPTOR MODULATORS” (priority 2007, dated 2008).

Assays:
[1] = tested on: Caco-2 cell monolayer
From the text: (§1) The Caco-2 cell monolayer is an in vitro tissue culture model of the intestinal epithelium. These cells are of human colonic origin and become polarized, fully differentiated enterocytes in 2-3 weeks. Once differentiated, these cells have tight junctions and express various biochemical processes such as active efflux transporters including P-glycoprotein (P-gp). With this model, it is possible to determine the apparent permeability (Papp) of a compound across the polarized Caco-2 cell monolayer.
(§2) An A→B Assay is performed with Caco-2 cell monolayers to determine compound Papp from A chamber to B chamber. This Papp is representative of luminal (gut) to serosal (blood) compound transport across intestinal epithelium that may be seen during intestinal absorption.

[2] = Oral dosing in portal vein-cannulated rats, portal vein plasma; assay type: in vivo; conditions: oral dosing 30 and 200 mg/kg, over a four-hour time period
[3] = Oral absorption profile in rats
[4] = Caco-2 cell monolayer A→B permeability assay; conditions: human
From the text: as §1, §2

[5] = target: full-length glucocorticoid (GR) protein; assay: Glucocorticoid receptor fluorescence polarization ligand binding (GRFP) assay; conditions: additional result (footnote a)
From the text: The glucocorticoid receptor fluorescence polarization ligand binding (GRFP) assay is used to evaluate direct binding of testing compounds to full-length glucocorticoid (GR) protein. Reagents for this assay are purchased from Invitrogen in a test kit. A fluorescent labeled GR ligand is used as a fluorescent tracer and test compounds compete with the fluorescent tracer for GR binding. The change in polarization value in the presence of test compounds is due to binding of test compounds to GR and is used to determine IC50 and relative binding affinity of test compounds for GR.

[6] = in vivo; conditions: rat, po
[7] = Solubility and intrinsic dissolution; assay type: physicochemical
[8] = Oral absorption profile, time to Cmax in dogs; conditions: dog, in vivo
[9] = tested on: IL-6; assay: IL-1β-stimulated IL-6 production in A549 lung epithelial cells; assay type: cell-based, Human
Method: Human A549 lung epithelial cells (American Type Culture Collection, Rockville, MD) were cultured in Kaighn's F-12K medium with penicillin-streptomycin (10 U/mL) and 10% heat-inactivated fetal bovine serum (all from Invitrogen, Grand Island, NY). A549 cells were plated at a density of 30,000 cells/well in 96-well plates and incubated overnight at 37°C and with 5% CO2. The cells were serum-starved by replacing the growth medium with serum-free Kaighn's F-12K medium with penicillin-streptomycin (10 U/mL) and, again, incubating overnight at 37°C and with 5% CO2. On the third day, the medium was replaced with fresh serum-free medium and the cells were incubated with or without compound (vehicle was DMSO at 0.1 % maximum concentration) for approximately 1 hour and then stimulated with 1 ng/mL recombinant human IL-1β (R&D Systems, Minneapolis, MN) for 20 hours at 37°C and with 5% CO2. Cell supernatants were collected for determination of IL-6 levels using MSD (Meso Scale Discovery, Gaithersburg, MD) 96-well Single Spot plates as per the manufacturer's instructions. Plates were read with an MSD Sector Imager 6000. […] Percent inhibition for each compound concentration, relative to these controls, was calculated using Excel (Microsoft, Redmond, WA). IC50 values were generated using GraFit 5.0 data analysis software (Erithacus Software Ltd., Surrey, UK).

Structure (SMILES): Cc1ncccc1NC(=O)c1ccc2c(c1)CC[C@@H]1C[C@@](OP(=O)(O)O)(C(F)(F)F)CC[C@@]21Cc1ccccc1 [Example 2, (2R,4αS,10αR)-4α-benzyl-7-((2-methylpyridin-3-yl)carbamoyl)-2-(trifluoromethyl)-1,2,3,4,4α,9,10,10α-octahydrophenanthren-2-yl dihydrogen phosphate]
- Example 1 in apical and basolateral compartments [1]: significant elevation of Example 1 in both the apical and basolateral compartments
- detection in portal vein plasma samples [2]: detection of Example 1, but not Example 2
- bioavailability F [3]: 59%
- Cmax ([3]; oral): 590 ng/mL
- Papp A→B [4]: 1.15 ×10⁻⁶ cm/s
- IC50 [5]: 42 nM
- AUC [6]: 1610 ng·h/mL
- solubility and intrinsic dissolution [7]: enhanced solubility and intrinsic dissolution
- Tmax [8]: 48 min
- IL-6 % Inhibition ([9]; A549 cells, additional result (footnote a)): 80%
- inhibition ([9]; Homo sapiens, A549): 60.2%
- IC50 ([9]; Homo sapiens, A549 cells, additional result (footnote a)): 17 nM
